Experimental data reported in patent US12275731B2, “Azaindole inhibitors of wild-type and mutant forms of LRRK2” (DANA-FARBER CANCER INSTITUTE, INC., priority 2018, dated 2025).

Legend:
FLT3(ITD) = assay: KinomeScan profiling; type: binding; conditions: 1 μM
How it was run: (§1)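 At 1 μM in DMSO, compounds are run through a broad 468-member kinase panel. The luminescent read-out is normalised so that vehicle gives 100% and a positive control gives 0%; any kinase falling below 35% is treated as a target.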

FLT3(ITD, D835V) = assay: KinomeScan profiling; type: binding; conditions: 1 μM
How it was run: as §1

FLT3(ITD, F691L) = assay: KinomeScan profiling; type: binding; conditions: 1 μM
How it was run: as §1

EGFR(T790M) = EGFR(T790M) (Homo sapiens, UniProt P00533, T790M); assay: KinomeScan profiling; type: binding; conditions: read-out: % control
EGFR(T790M), sequence (P00533 25-1210 T790M): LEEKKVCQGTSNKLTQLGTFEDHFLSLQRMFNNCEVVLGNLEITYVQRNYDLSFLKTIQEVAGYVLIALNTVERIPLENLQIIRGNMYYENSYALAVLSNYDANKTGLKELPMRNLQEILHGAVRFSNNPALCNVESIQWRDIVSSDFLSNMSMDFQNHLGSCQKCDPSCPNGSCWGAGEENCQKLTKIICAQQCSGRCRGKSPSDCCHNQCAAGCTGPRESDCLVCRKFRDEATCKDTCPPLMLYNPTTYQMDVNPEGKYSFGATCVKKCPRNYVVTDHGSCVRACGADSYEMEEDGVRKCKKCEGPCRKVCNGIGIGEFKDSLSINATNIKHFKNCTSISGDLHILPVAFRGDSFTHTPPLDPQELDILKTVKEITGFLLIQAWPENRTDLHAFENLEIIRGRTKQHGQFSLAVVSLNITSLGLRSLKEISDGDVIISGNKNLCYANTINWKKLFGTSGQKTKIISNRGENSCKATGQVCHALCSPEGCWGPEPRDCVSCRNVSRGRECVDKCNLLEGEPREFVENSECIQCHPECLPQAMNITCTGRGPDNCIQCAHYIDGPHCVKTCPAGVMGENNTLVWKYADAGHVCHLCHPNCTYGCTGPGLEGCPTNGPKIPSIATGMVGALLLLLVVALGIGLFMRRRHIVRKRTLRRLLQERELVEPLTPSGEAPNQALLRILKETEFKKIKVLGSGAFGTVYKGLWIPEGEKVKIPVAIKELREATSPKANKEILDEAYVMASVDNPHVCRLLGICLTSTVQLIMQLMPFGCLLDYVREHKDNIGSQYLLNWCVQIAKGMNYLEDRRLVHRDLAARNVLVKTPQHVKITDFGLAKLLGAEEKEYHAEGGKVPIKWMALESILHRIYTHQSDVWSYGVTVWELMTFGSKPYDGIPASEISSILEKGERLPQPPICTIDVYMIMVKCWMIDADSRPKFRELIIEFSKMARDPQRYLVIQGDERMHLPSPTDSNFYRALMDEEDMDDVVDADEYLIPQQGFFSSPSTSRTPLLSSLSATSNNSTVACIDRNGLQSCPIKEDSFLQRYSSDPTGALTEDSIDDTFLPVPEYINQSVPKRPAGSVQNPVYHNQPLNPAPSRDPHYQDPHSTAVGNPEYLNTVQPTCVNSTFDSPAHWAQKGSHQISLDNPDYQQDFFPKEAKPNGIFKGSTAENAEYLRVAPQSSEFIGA
How it was run: as §1

LRRK2(G2019S) = LRRK2(G2019S) (Homo sapiens, UniProt Q5S007, G2019S); assay: LRRK2 G2019S kinase inhibition assay (ADP-Glo); type: biochemical; parameters: purchased SignalChem L10-12GG; conditions: Table 2, class symbols; read-out: Enzyme activity against LRRK2 G2019S (IC50)
LRRK2(G2019S), sequence (Q5S007 970-2527 G2019S limits assumed): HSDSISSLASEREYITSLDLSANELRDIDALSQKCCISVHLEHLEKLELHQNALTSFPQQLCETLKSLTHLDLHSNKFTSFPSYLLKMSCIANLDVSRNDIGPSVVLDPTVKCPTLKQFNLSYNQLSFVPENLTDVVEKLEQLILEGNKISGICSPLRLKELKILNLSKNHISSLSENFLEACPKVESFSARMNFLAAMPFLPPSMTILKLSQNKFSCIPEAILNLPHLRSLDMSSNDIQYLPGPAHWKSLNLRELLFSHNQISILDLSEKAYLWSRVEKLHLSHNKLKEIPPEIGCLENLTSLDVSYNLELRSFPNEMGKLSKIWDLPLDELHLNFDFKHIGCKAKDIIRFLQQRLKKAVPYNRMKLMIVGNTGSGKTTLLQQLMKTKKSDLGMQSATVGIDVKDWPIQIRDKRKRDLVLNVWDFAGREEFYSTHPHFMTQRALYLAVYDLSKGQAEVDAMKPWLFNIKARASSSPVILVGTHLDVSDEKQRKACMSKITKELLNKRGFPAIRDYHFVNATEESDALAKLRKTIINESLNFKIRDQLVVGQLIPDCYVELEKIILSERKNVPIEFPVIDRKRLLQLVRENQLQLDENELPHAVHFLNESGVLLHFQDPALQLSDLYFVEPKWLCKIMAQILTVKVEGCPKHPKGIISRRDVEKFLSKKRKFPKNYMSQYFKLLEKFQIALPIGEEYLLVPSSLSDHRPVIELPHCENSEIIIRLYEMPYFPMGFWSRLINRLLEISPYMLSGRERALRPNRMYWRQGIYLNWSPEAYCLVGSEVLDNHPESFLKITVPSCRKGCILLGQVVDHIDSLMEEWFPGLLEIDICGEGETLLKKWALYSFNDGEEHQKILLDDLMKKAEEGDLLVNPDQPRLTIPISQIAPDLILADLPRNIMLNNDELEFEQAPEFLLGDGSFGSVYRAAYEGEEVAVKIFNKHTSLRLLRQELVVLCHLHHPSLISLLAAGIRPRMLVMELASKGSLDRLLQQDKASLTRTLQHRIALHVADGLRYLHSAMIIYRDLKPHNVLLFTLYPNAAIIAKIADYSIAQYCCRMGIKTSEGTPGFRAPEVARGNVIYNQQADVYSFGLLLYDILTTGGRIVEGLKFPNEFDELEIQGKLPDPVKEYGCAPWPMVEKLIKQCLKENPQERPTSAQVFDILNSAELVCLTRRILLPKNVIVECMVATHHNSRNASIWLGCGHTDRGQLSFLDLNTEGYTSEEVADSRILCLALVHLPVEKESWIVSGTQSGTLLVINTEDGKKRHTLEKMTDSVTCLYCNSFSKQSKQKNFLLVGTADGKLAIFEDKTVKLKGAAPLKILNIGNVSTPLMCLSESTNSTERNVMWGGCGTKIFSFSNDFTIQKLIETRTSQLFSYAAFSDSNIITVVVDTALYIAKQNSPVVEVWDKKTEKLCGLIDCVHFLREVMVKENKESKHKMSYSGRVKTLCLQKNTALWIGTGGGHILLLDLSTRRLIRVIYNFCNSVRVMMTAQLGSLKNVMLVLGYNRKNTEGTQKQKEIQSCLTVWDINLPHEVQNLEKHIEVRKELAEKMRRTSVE
Procedure: (§2) IC50 experiments were performed for inventive compounds. An exemplary kit to perform this assay includes the Adapta™ Screening Protocol and Assay Conditions by Invitrogen™ (Fisher Scientific™, Catalog No. PV5099).
(§3) All LRRK2 kinase inhibition assays were conducted by using Promega ADP-Glo™ Kinase assay systems (Catalog number; V4475). Inhibitors were tested with 12 concentrations over a 5-fold serial dilution series (50 μM, 10 μM, 2 μM, 400 nM, 80 nM, 16 nM, 3.2 nM, […]) and PF06447475 as positive control. For the LRRK2 wild type (WT) enzyme assay, each inhibitor was mixed with 0.2 μg/μL of substrate (LRRKtide, SignalChem, Richmond, BC, Canada), […] (Invitrogen™, Carlsbad, CA), 24 ng of LRRK2 WT enzyme (Thermo Fisher Scientific, PR8604B) in 384-well plate. For LRRK G2019S, each compound was mixed with 0.2 μg/μL of substrate, […], 16 ng of LRRK2 G2019S enzyme (SignalChem, L10-12GG). All samples were diluted with kinase reaction buffer (40 mmol/L TrisHCl, 10 mmol/L MgCl2, and 0.1 μg/μL BSA (bovine serum albumin)). After 2 hours at 25° C., ADP-Glo™ (Promega, Madison, WI) reagent was added and the samples were incubated at rt for 40 min. Finally, Kinase Detection Reagent was added and the resulting mixtures were allowed to react at rt for 10 min. Luminescence signals were detected using Synergy™ Neo2 microplate reader (Bio-Tek). Compound inhibition curve was fitted using Graphpad Prism 8.0 software.

LRRK2 WT enzyme = molecular target: T1, LRRK2 WT enzyme (Homo sapiens, UniProt Q5S007); assay: LRRK2 wild type kinase inhibition assay (ADP-Glo); type: biochemical; conditions: Table 2, class symbols; read-out: Enzyme activity against LRRK2 WT (IC50)
T1 construct: purchased Thermo Fisher Scientific PR8604B
T1 sequence (Q5S007 970-2527 limits assumed): as the sequence (Q5S007 970-2527 G2019S limits assumed) above, with S1050G counted along it
Procedure: as §2, §3

O=C(c1ccc(-c2cnc3[nH]cc(Cl)c3c2NC2CCCC2)cc1)N1CCC(N2CCOCC2)CC1 [Compound 101, (4-(3-chloro-4-(cyclopentylamino)-1H-pyrrolo[2,3-b]pyridin-5-yl)phenyl)(4-morpholinopiperidin-1-yl)methanone]
% control (FLT3(ITD)): 41%
% control (FLT3(ITD, D835V)): 55%
% control (FLT3(ITD, F691L)): 49%
remaining binding at 1 µM (EGFR(T790M)): 100%

CNc1c(-c2cnn([C@H]3CCN(C(C)=O)C[C@@H]3F)c2)cnc2[nH]cc(Cl)c12 [Compound 77, 1-((3S,4S)-4-(4-(3-chloro-4-(methylamino)-1H-pyrrolo[2,3-b]pyridin-5-yl)-1H-pyrazol-1-yl)-3-fluoropiperidin-1-yl)ethan-1-one]
IC50 (LRRK2(G2019S)): 10 to 100 nM
remaining binding at 1 µM (EGFR(T790M)): 93%
IC50 (LRRK2 WT enzyme): 10 to 100 nM

CNc1c(-c2ccc(C(=O)N3CCC(N4CCOCC4)CC3)cc2)cnc2[nH]cc(Cl)c12 [Compound 96, (4-(3-chloro-4-(methylamino)-1H-pyrrolo[2,3-b]pyridin-5-yl)phenyl)(4-morpholinopiperidin-1-yl)methanone]
IC50 (LRRK2(G2019S)): < 10 nM
% control (FLT3(ITD)): 8.1%
% control (FLT3(ITD, D835V)): 3.6%
% control (FLT3(ITD, F691L)): 0%
remaining binding at 1 µM (EGFR(T790M)): 83%
IC50 (LRRK2 WT enzyme): 10 to 100 nM
